This assay deals with PARP-1. Kind of assay: Immunoblotting for PARP-1 in alveolar macrophages pre-treated with JP-8 and substance P. The assay is classed as cell-based. Particulars: PAM pre-treated with 8 ug/ml of JP-8 and substance P; 24 hours; immunoblotting (FIG. 1). On the procedure:
Alveolar macrophages (PAM) were pre-treated with 8 ug/ml of JP-8 and substance P, or left untreated. After 24 hours, protein was extracted from the PAM and analyzed by immunoblotting for PARP-1, procaspase-3, p53, and GAPDH.

Ends that are not written are not given here.

“Substance P (RPKPQQFFGLM-NH2; listed as Homo sapiens)”: the “PARP-1 expression in alveolar macrophages” value is reported as “causes degradation of PARP-1 expression in alveolar macrophages in a dose-dependent manner”.

The values above are taken from US20090286744A1, “Treatment of asthma” (IMMUNEREGEN BIOSCINECES INC., priority 2005, published 2009).
